SMILES strings stand for the structures.

In this test the target is T1, LRRK2 (G2019S) (Homo sapiens, UniProt Q5S007, G2019S).
T1 construct: Recombinant GST-LRRK2 (delta970), purified from baculovirus infected insect cells (SF9); GST (N); host or cells: baculovirus infected insect cells (SF9)
T1 sequence (Q5S007 970-2527 G2019S limits assumed): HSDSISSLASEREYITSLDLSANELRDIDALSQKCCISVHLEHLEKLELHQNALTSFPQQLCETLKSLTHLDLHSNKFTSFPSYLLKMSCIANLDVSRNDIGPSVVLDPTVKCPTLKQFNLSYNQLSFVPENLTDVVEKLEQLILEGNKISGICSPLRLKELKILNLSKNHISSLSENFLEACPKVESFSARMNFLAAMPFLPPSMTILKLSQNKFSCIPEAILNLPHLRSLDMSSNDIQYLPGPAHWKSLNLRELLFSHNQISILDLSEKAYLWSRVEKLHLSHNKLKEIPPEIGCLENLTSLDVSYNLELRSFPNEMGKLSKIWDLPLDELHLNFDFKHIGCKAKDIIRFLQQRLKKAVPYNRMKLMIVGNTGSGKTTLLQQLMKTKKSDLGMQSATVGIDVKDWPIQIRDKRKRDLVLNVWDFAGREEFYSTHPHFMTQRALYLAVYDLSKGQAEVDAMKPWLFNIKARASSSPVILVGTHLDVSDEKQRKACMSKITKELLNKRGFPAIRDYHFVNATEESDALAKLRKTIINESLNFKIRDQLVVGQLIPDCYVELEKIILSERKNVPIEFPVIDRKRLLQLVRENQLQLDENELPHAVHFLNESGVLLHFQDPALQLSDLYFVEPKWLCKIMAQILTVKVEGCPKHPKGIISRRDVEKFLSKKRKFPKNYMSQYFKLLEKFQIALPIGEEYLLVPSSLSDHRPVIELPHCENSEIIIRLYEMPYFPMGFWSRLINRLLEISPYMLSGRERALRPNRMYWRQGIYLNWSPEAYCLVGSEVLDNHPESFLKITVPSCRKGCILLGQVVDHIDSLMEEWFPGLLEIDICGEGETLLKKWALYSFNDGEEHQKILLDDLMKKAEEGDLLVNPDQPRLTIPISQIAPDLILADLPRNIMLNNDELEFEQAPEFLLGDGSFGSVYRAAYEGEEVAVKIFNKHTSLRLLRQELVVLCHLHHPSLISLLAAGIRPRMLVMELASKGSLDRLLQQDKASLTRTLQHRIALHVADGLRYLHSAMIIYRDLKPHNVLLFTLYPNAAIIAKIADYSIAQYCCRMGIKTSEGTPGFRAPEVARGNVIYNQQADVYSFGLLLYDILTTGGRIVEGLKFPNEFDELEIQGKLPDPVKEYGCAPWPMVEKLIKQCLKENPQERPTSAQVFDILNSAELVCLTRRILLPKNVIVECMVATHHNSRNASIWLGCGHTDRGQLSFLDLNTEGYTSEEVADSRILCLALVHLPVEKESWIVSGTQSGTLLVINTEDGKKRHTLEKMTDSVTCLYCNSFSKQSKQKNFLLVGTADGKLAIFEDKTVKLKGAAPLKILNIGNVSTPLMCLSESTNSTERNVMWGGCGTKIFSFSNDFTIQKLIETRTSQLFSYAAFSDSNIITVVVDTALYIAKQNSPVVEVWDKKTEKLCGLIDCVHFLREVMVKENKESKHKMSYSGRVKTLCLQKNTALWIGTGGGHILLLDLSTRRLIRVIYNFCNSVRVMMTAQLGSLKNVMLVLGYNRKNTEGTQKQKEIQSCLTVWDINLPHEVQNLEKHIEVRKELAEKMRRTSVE
Put plainly: LRRK2 inhibition, radiometric kinase assay with recombinant GST-LRRK2 (delta970) and peptide substrate. The test is classed as biochemical. As to conditions: GST-LRRK2 (delta970) G2019S 30 nM, ATP ~52 μM (Km), 30 min at 30° C. How it is done:
Compounds were assessed for inhibition of LRRK2 inhibition using the following procedure.
Recombinant GST-LRRK2 (delta970), purified from baculovirus infected insect cells (SF9), at least 90% pure and either wild-type sequence or bearing the pathogenic G2019S mutation, was combined into a kinase buffer at 30 nM concentration. Kinase buffer consists of 50 mM Tris HCl pH 7.4, 1 mM EDTA, and 50 μM peptide substrate (amino acid sequence […]). Experimental compounds or control (no compound) were added at desired concentrations in DMSO and water, where final concentration of DMSO in kinase reactions was 0.1% for all drug concentrations. Activation buffer that consists of a final concentration in the reactions of 10 mM MgCl2 and ATP (˜92 μM for WT-LRRK2 reactions and ˜52 μM for G2019S-LRRK2, which represent respective Km ATP concentrations) were added to each reaction, in addition to 0.5 μCi of gamma-32-P-dATP per reaction. Reactions were incubated at 1400 RPM at 30° C. for 30 min. and then spotted in triplicate directly onto a slot-blot apparatus fitted with phospho-cellulose paper and allowed to dry. Each slot was then washed with 10 mM phosphoric acid buffer until beta-radiation could not be detected in eluted wash buffer, usually ˜1 mL per slot. Paper within each slot were excised and radiation measured by liquid scintillation.
Take `O=C(O)CSc1ccc2nnc(-c3nccs3)n2n1` [Example 42, 2-((3-(thiazol-2-yl)-[1,2,4]triazolo[4,3-b]pyridazin-6-yl)thio)acetic acid]: the IC50 was at least 5 µM.

With `O=C(CSc1ccc2nnc(-c3ccc(F)cc3)n2n1)Nc1nccs1` [Example 43, 2-((3-(4-fluorophenyl)-[1,2,4]triazolo[4,3-b]pyridazin-6-yl)thio)-N-(thiazol-2-yl)acetamide], the IC50 was at least 5 µM.

For `CCC(Sc1ccc2nnc(-c3cccs3)n2n1)C(=O)N1CCCC1` (stereo not drawn) [Example 46, 1-(pyrrolidin-1-yl)-2-((3-(thiophen-2-yl)-[1,2,4]triazolo[4,3-b]pyridazin-6-yl)thio)butan-1-one], the IC50 was below 0.1 µM.

On to `CCC(Sc1ccc2nnc(-c3cccs3)n2n1)C(=O)N1CCOCC1` (stereo not drawn) [Example 47, 1-morpholino-2-((3-(thiophen-2-yl)-[1,2,4]triazolo[4,3-b]pyridazin-6-yl)thio)butan-1-one], for which the IC50 was in the range of 0.1 to 1 µM.

Turning to `CCC(Sc1ccc2nnc(-c3cccs3)n2n1)C(=O)NCc1cccs1` (stereo not drawn) [Example 48, 2-((3-(thiophen-2-yl)-[1,2,4]triazolo[4,3-b]pyridazin-6-yl)thio)-N-(thiophen-2-ylmethyl)butanamide], the IC50 fell in the range of 0.1 to 1 µM.

Turning to `Cc1ccc(-c2nnc3ccc(SCC(N)=O)nn23)s1` [Example 49, 2-((3-(5-methylthiophen-2-yl)-[1,2,4]triazolo[4,3-b]pyridazin-6-yl)thio)acetamide], the IC50 was 0.1 to 1 µM.

Turning to `CCC(Sc1ccc2nnc(-c3cccs3)n2n1)C(=O)N1CCCCCC1` (stereo not drawn) [Example 50, 1-(azepan-1-yl)-2-((3-(thiophen-2-yl)-[1,2,4]triazolo[4,3-b]pyridazin-6-yl)thio)butan-1-one], the IC50 was at least 5 µM.

For the compound `CCC(Sc1ccc2nnc(-c3cccs3)n2n1)C(=O)N1CCCC(C)C1` (stereo not drawn) [Example 51, 1-(3-methylpiperidin-1-yl)-2-((3-(thiophen-2-yl)-[1,2,4]triazolo[4,3-b]pyridazin-6-yl)thio)butan-1-one], the IC50 was 0.1 to 1 µM.

Turning to `CCC(Sc1ccc2nnc(-c3cccs3)n2n1)C(=O)NC1CCCCC1` (stereo not drawn) [Example 52, N-cyclohexyl-2-((3-(thiophen-2-yl)-[1,2,4]triazolo[4,3-b]pyridazin-6-yl)thio)butanamide], the IC50 lay within 0.1 to 1 µM.

As to `CCC(Sc1ccc2nnc(-c3ccc(C(F)(F)F)cc3)n2n1)C(=O)O` (stereo not drawn) [Example 53, 2-((3-(4-(trifluoromethyl)phenyl)-[1,2,4]triazolo[4,3-b]pyridazin-6-yl)thio)butanoic acid], the IC50 was at least 5 µM.

Take `CCC(Sc1ccc2nnc(-c3ccc(F)c(F)c3)n2n1)C(=O)O` (stereo not drawn) [Example 54, 2-((3-(3,4-difluorophenyl)-[1,2,4]triazolo[4,3-b]pyridazin-6-yl)thio)butanoic acid]: the IC50 lay within 0.1 to 1 µM.

On to `CCC(Sc1ccc2nnc(-c3ccccc3F)n2n1)C(=O)O` (stereo not drawn) [Example 55, 2-((3-(2-fluorophenyl)-[1,2,4]triazolo[4,3-b]pyridazin-6-yl)thio)butanoic acid], for which the IC50 is 0.1 to 1 µM.

With `CCC(Sc1ccc2nnc(-c3cccc(F)c3)n2n1)C(=O)O` (stereo not drawn) [Example 56, 2-((3-(3-fluorophenyl)-[1,2,4]triazolo[4,3-b]pyridazin-6-yl)thio)butanoic acid], the IC50 was 0.1 to 1 µM.

On to `Cc1ccc(-c2nnc3ccc(SCC(=O)N4CCCCC4)nn23)s1` [Example 57, 2-((3-(5-methylthiophen-2-yl)-[1,2,4]triazolo[4,3-b]pyridazin-6-yl)thio)-1-(piperidin-1-yl)ethanone], for which the IC50 is 1 to 5 µM.

Regarding `CCC(Sc1ccc2nnc(-c3cccs3)n2n1)C(=O)N1CCN(C)CC1` (stereo not drawn) [Example 58, 1-(4-methylpiperazin-1-yl)-2-((3-(thiophen-2-yl)-[1,2,4]triazolo[4,3-b]pyridazin-6-yl)thio)butan-1-one], the IC50 is at least 5 µM.

For `CCC(Sc1ccc2nnc(-c3ccc(C)s3)n2n1)C(=O)N1CCCCC1` (stereo not drawn) [Example 59, 2-((3-(5-methylthiophen-2-yl)-[1,2,4]triazolo[4,3-b]pyridazin-6-yl)thio)-1-(piperidin-1-yl)butan-1-one], the IC50 was at least 5 µM.

Take `CCC(Sc1ccc2nnc(-c3nccs3)n2n1)C(=O)N1CCCCC1` (stereo not drawn) [Example 60, 1-(piperidin-1-yl)-2-((3-(thiazol-2-yl)-[1,2,4]triazolo[4,3-b]pyridazin-6-yl)thio)butan-1-one]: the IC50 was in the range of 0.1 to 1 µM.

Turning to `CCC(Sc1ccc2nnc(-c3ccc(Cl)s3)n2n1)C(=O)O` (stereo not drawn) [Example 61, 2-((3-(5-chlorothiophen-2-yl)-[1,2,4]triazolo[4,3-b]pyridazin-6-yl)thio)butanoic acid], the IC50 is at least 5 µM.

Take `CCC(Sc1ccc2nnc(-c3ccc(Cl)s3)n2n1)C(=O)N1CCCCC1` (stereo not drawn) [Example 62, 2-((3-(5-chlorothiophen-2-yl)-[1,2,4]triazolo[4,3-b]pyridazin-6-yl)thio)-1-(piperidin-1-yl)butan-1-one]: the IC50 lay within 0.1 to 1 µM.

Regarding `CCC(Sc1ccc2nnc(-c3ccc(Cl)s3)n2n1)C(=O)N1CCCC1` (stereo not drawn) [Example 63, 2-((3-(5-chlorothiophen-2-yl)-[1,2,4]triazolo[4,3-b]pyridazin-6-yl)thio)-1-(pyrrolidin-1-yl)butan-1-one], the IC50 is 0.1 to 1 µM.

As to `CCC(Sc1ccc2nnc(-c3ccsc3)n2n1)C(=O)N1CCCCC1` (stereo not drawn) [Example 64, 1-(piperidin-1-yl)-2-((3-(thiophen-3-yl)-[1,2,4]triazolo[4,3-b]pyridazin-6-yl)thio)butan-1-one], the IC50 was in the range of 0.1 to 1 µM.

On to `CCOC(=O)C(CC)Sc1ccc2nnc(-c3ccc(OC)cc3)n2n1` (stereo not drawn) [Example 65, ethyl 2-((3-(4-methoxyphenyl)-[1,2,4]triazolo[4,3-b]pyridazin-6-yl)thio)butanoate], for which the IC50 is at least 5 µM.

Regarding `CCC(Sc1ccc2nnc(-c3ccc(OC)cc3)n2n1)C(N)=O` (stereo not drawn) [Example 66, 2-((3-(4-methoxyphenyl)-[1,2,4]triazolo[4,3-b]pyridazin-6-yl)thio)butanamide], the IC50 fell in the range of 0.1 to 1 µM.

Take `CCC(Sc1ccc2nnc(-c3ccc(OC)cc3)n2n1)C(=O)N1CCCCC1` (stereo not drawn) [Example 67, 2-((3-(4-methoxyphenyl)-[1,2,4]triazolo[4,3-b]pyridazin-6-yl)thio)-1-(piperidin-1-yl)butan-1-one]: the IC50 was 0.1 to 1 µM.

As for `CCOC(=O)C(CC)Sc1ccc2nnc(-c3ccccc3OC)n2n1` (stereo not drawn) [Example 68, ethyl 2-((3-(2-methoxyphenyl)-[1,2,4]triazolo[4,3-b]pyridazin-6-yl)thio)butanoate], the 50% inhibitory concentration (IC50) is at least 5 µM.

Regarding `CCC(Sc1ccc2nnc(-c3ccccc3OC)n2n1)C(N)=O` (stereo not drawn) [Example 69, 2-((3-(2-methoxyphenyl)-[1,2,4]triazolo[4,3-b]pyridazin-6-yl)thio)butanamide], the IC50 is at least 5 µM.

Take `CCC(Sc1ccc2nnc(-c3ccccc3OC)n2n1)C(=O)N1CCCCC1` (stereo not drawn) [Example 70, 2-((3-(2-methoxyphenyl)-[1,2,4]triazolo[4,3-b]pyridazin-6-yl)thio)-1-(piperidin-1-yl)butan-1-one]: the IC50 is at least 5 µM.

For `CCOC(=O)C(CC)Sc1ccc2nnc(-c3cccc(OC)c3)n2n1` (stereo not drawn) [Example 71, ethyl 2-((3-(3-methoxyphenyl)-[1,2,4]triazolo[4,3-b]pyridazin-6-yl)thio)butanoate], the IC50 was in the range of 1 to 5 µM.

As for `CCC(Sc1ccc2nnc(-c3cccc(OC)c3)n2n1)C(N)=O` (stereo not drawn) [Example 72, 2-((3-(3-methoxyphenyl)-[1,2,4]triazolo[4,3-b]pyridazin-6-yl)thio)butanamide], the IC50 lay within 0.1 to 1 µM.

For the compound `CCC(Sc1ccc2nnc(-c3cccc(OC)c3)n2n1)C(=O)N1CCCCC1` (stereo not drawn) [Example 73, 2-((3-(3-methoxyphenyl)-[1,2,4]triazolo[4,3-b]pyridazin-6-yl)thio)-1-(piperidin-1-yl)butan-1-one], the IC50 lay within 0.1 to 1 µM.

With `CCOC(=O)C(CC)Sc1ccc2nnc(-c3ccccc3F)n2n1` (stereo not drawn) [Example 74, ethyl 2-((3-(2-fluorophenyl)-[1,2,4]triazolo[4,3-b]pyridazin-6-yl)thio)butanoate], the IC50 fell in the range of 1 to 5 µM.

As to `CCOC(=O)C(CC)Sc1ccc2nnc(-c3cccc(F)c3)n2n1` (stereo not drawn) [Example 75, ethyl 2-((3-(3-fluorophenyl)-[1,2,4]triazolo[4,3-b]pyridazin-6-yl)thio)butanoate], the IC50 is 1 to 5 µM.

Turning to `CCOC(=O)C(CC)Sc1ccc2nnc(-c3ccc(F)c(F)c3)n2n1` (stereo not drawn) [Example 76, ethyl 2-((3-(3,4-difluorophenyl)-[1,2,4]triazolo[4,3-b]pyridazin-6-yl)thio)butanoate], the IC50 is 1 to 5 µM.

`CCOC(=O)C(CC)Sc1ccc2nnc(-c3ccc(C(F)(F)F)cc3)n2n1` (stereo not drawn) [Example 77, ethyl 2-((3-(4-(trifluoromethyl)phenyl)-[1,2,4]triazolo[4,3-b]pyridazin-6-yl)thio)butanoate]: the IC50 is at least 5 µM.

As for `CCC(Sc1ccc2nnc(-c3ccc(C(F)(F)F)cc3)n2n1)C(N)=O` (stereo not drawn) [Example 78, 2-((3-(4-(trifluoromethyl)phenyl)-[1,2,4]triazolo[4,3-b]pyridazin-6-yl)thio)butanamide], the IC50 is at least 5 µM.

For `CCC(Sc1ccc2nnc(-c3ccc(F)c(F)c3)n2n1)C(N)=O` (stereo not drawn) [Example 79, 2-((3-(3,4-difluorophenyl)-[1,2,4]triazolo[4,3-b]pyridazin-6-yl)thio)butanamide], the IC50 lay within 1 to 5 µM.

By IC50 is commonly meant the midpoint of a concentration-inhibition curve.

The values above are taken from patent US9187484B2 (Southern Research Institute, priority 2012, dated 2015).
